Publication PMC3830930 (Clinical pharmacology and therapeutics, 2011)
Where two headings read alike, the source gives them in different places. Marks after values point to notes of the source that are not given here.

Assays:
CYP3A4/5 [1] = conditions: for AUC1’-OH/AUC4-OH ratio: range over the three CYP3A5 genotype groups
[2] = target: recombinant CYP3A4 (rCYP3A4) (Homo sapiens, UniProt P08684)
CYP3A4/5 [3] = assay: clinical; conditions: human, in vivo
[4] = system: UDP-glucuronosyltransferases (UGTs) in pooled HLMs; assay: Glucuronidation of hydroxymidazolams in HLMs; assay type: in vitro ADME, human
[5] = cited from earlier work
plasma protein = conditions: cited from earlier work

Chain of recombinant CYP3A4 (rCYP3A4) (P08684 2-503 limits assumed): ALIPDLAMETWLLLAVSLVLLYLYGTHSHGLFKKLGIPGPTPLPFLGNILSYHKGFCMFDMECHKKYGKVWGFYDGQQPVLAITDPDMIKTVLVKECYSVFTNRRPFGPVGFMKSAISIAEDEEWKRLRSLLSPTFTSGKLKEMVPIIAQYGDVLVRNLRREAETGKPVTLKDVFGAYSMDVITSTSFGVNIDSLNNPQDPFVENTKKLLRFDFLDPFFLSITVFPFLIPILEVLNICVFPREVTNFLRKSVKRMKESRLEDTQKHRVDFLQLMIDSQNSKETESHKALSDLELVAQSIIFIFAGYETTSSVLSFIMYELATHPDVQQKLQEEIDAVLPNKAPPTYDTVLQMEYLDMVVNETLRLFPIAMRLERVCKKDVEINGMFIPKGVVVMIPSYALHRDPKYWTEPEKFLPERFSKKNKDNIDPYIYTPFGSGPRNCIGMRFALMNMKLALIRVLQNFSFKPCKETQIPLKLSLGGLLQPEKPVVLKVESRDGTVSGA

With `OCc1ncc2n1-c1ccc(Cl)cc1C(c1ccccc1F)=NC2` [1’-hydroxymidazolam] the “AUC1’-OH/AUC4-OH ratio” value (CYP3A4/5 [1]; control state) was 6.3–9.6, the “percent of extrapolated AUC” value (CYP3A4/5 [1]; extrapolation to infinity, mean ± S.D.) was 18.4 ± 10.6% and the “AUC1’-OH/AUC4-OH ratio” value (CYP3A4/5 [1]; with fluconazole) was 2.9–4.9. For the same compound, the “Ki of 1’-OH-MDZ formation (substrate inhibition)” value [2] was 1480 ± 615 ^a µM.
With `Cc1ncc2n1-c1ccc(Cl)cc1C(c1ccccc1F)=NC2O` (centres unmarked) [4-hydroxymidazolam] the “percent of extrapolated AUC” value (CYP3A4/5 [1]; human, in vivo) was 19.0 ± 8.3% and the AUC (CYP3A4/5 [3]; iv, 1 mg, AUC4-OH) was 0.0022 ± 0.0006 µM·h.
In the case of `OC(Cn1cncn1)(Cn1cncn1)c1ccc(F)cc1F` [fluconazole], the “effect on the glucuronidation of either hydroxymidazolam metabolite” value ([4]; pooled HLMs, substrate 1 µM, even at 300 µM fluconazole) is listed as “no effect”, the “IC50 for 1’-OH-MDZ lower than that for 4-OH-MDZ” value ([2]; human, pH 7.4) is listed as 50% and the “elimination t1/2” value [5] is listed as ~ 32 hrs. For the same compound, the plasma protein binding (plasma protein) was 11–12%.
With `Cc1ncc2n1-c1ccc(Cl)cc1C(c1ccccc1F)=NC2` [midazolam, reference compound] the “percent of extrapolated AUC” value (CYP3A4/5 [1]; human, in vivo) was 13.0 ± 9.5%, the AUC (CYP3A4/5 [3]; AUCMDZ) was 0.227 µM·h and the AUC (CYP3A4/5 [3]; iv, 1 mg, AUCMDZ) was 0.16 ± 0.035 µM·h.
For hecogenin, the “effect on glucuronide formation from 1’-OH-MDZ or 4-OH-MDZ” value [4] was “decreased glucuronide formation significantly”.
